According to PubChem BioAssay AID248 (DTP/NCI, 2004):
Toxic doses and inconclusive results are not listed. Cut-off read from the data, not from the text of the source: active = T/C of 150% or more; inactive = T/C below 125%.

Test system: L1210 leukemia ip in BDF1 mice, survival T/C
Assay: NCI In Vivo Anticancer Drug Screen. Data for tumor model L1210 Leukemia (intraperitoneal) in B6D2F1 (BDF1) mice
Details: endpoint: mean survival time, higher = longer survival
How it was run: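 Value reflects the ratio of survival in compound-treated mice to survival in vehicle-treated controls, with both groups carrying the same transplanted tumor.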

[1] = dose: 50.0 mg/kg/injection, schedule: Q04DX003 (ip), vehicle: saline
[2] = dose: 25.0 mg/kg/injection, schedule: Q01DX009 (ip), vehicle: Klucel (hydroxypropylcellulose) (HPC)
[3] = dose: 50.0 mg/kg/injection, schedule: Q01DX009 (ip), vehicle: Klucel (hydroxypropylcellulose) (HPC)
[4] = dose: 100.0 mg/kg/injection, schedule: Q04DX003 (ip), vehicle: Klucel (hydroxypropylcellulose) (HPC)
[5] = dose: 200.0 mg/kg/injection, schedule: Q04DX003 (ip), vehicle: Klucel (hydroxypropylcellulose) (HPC)
[6] = dose: 100.0 mg/kg/injection, schedule: Q01DX009 (ip), vehicle: saline
[7] = dose: 100.0 mg/kg/injection, schedule: Q04DX003 (ip), vehicle: saline
[8] = dose: 200.0 mg/kg/injection, schedule: Q04DX003 (ip), vehicle: saline
[9] = dose: 400.0 mg/kg/injection, schedule: Q04DX003 (ip), vehicle: saline
[10] = dose: 100.0 mg/kg/injection, schedule: Q01DX001 (ip), vehicle: carboxymethylcellulose (CMC)
[11] = dose: 200.0 mg/kg/injection, schedule: Q01DX001 (ip), vehicle: carboxymethylcellulose (CMC)
[12] = dose: 400.0 mg/kg/injection, schedule: Q01DX001 (ip), vehicle: carboxymethylcellulose (CMC)
[13] = dose: 100.0 mg/kg/injection, schedule: Q01DX001 (ip), vehicle: saline
[14] = dose: 200.0 mg/kg/injection, schedule: Q01DX001 (ip), vehicle: saline
[15] = dose: 400.0 mg/kg/injection, schedule: Q01DX001 (ip), vehicle: saline
[16] = dose: 100.0 mg/kg/injection, schedule: Q01DX009 (ip), vehicle: Klucel (hydroxypropylcellulose) (HPC)
[17] = dose: 200.0 mg/kg/injection, schedule: Q01DX009 (ip), vehicle: Klucel (hydroxypropylcellulose) (HPC)

Measured: T/C

CCSc1ncnc2c1nnn2C1OC(CO)C(O)C1O (centres undefined)
inactive: dose: 12.5 mg/kg/injection, schedule: Q01DX001 (ip), vehicle: saline with Tween-80 100 % of control | dose: 25.0 mg/kg/injection, schedule: Q01DX001 (ip), vehicle: saline with Tween-80 102 % of control | dose: 50.0 mg/kg/injection, schedule: Q01DX001 (ip), vehicle: saline with Tween-80 97 % of control | dose: 100.0 mg/kg/injection, schedule: Q01DX001 (ip), vehicle: saline with Tween-80 103 % of control | dose: 200.0 mg/kg/injection, schedule: Q01DX001 (ip), vehicle: saline with Tween-80 108 % of control

CNC(C#N)c1ccco1 (centres undefined)
inactive: dose: 6.25 mg/kg/injection, schedule: Q04DX003 (ip), vehicle: saline 102 % of control | dose: 12.5 mg/kg/injection, schedule: Q04DX003 (ip), vehicle: saline 95 % of control | [1] 94 % of control

CCC1(C)C(=O)N(C)C(=O)N1Br (centres undefined)
inactive: [2] 96 % of control | [3] 101 % of control | [4] 97 % of control

O=C1NC(CCl)(CCl)CO1
inactive: dose: 0.5 mg/kg/injection, schedule: Q01DX001 (ip), vehicle: saline 94 % of control | dose: 1.0 mg/kg/injection, schedule: Q01DX001 (ip), vehicle: saline 94 % of control | dose: 2.0 mg/kg/injection, schedule: Q01DX001 (ip), vehicle: saline 105 % of control

CC(N)c1ccc(OCCOc2ccc(C(C)(C)CC(C)(C)C)cc2)cc1 (centres undefined)
inactive: dose: 6.25 mg/kg/injection, schedule: Q01DX009 (ip), vehicle: Klucel (hydroxypropylcellulose) (HPC) 93 % of control | dose: 12.5 mg/kg/injection, schedule: Q01DX009 (ip), vehicle: Klucel (hydroxypropylcellulose) (HPC) 94 % of control | [2] 93 % of control | [4] 96 % of control | [5] 95 % of control

COC(C)C(OC)OC (centres undefined)
inactive: [6] 98 % of control | [7] 101 % of control | dose: 200.0 mg/kg/injection, schedule: Q01DX009 (ip), vehicle: saline 96 % of control | [8] 103 % of control | dose: 400.0 mg/kg/injection, schedule: Q01DX009 (ip), vehicle: saline 96 % of control | [9] 92 % of control

O=C(NO)c1cccc(C(=O)NO)n1
inactive: dose: 237.0 mg/kg/injection, schedule: Q01DX015 (ip), vehicle: water 113 % of control | dose: 356.0 mg/kg/injection, schedule: Q01DX015 (ip), vehicle: water 114 % of control | dose: 533.0 mg/kg/injection, schedule: Q01DX015 (ip), vehicle: water 104 % of control

COc1cc(C(=O)N(C)OC)cc(OC)c1OC
inactive: [10] 96 % of control | [11] 91 % of control | [12] 100 % of control

CN1CCC(OC(=O)C2CC(=O)N(C)C(=O)C2)CC1
inactive: dose: 25.0 mg/kg/injection, schedule: Q04DX003 (ip), vehicle: saline 98 % of control | [1] 98 % of control | [7] 100 % of control

ClC(Cl)(NC1CCCCC1)NC1CCCCC1
inactive: [13] 90 % of control | [14] 91 % of control | [15] 86 % of control

CC(=O)Oc1c(C)cc(O)c2ccccc12
inactive: [3] 96 % of control | [16] 111 % of control | [17] 100 % of control

Nc1cc2c(cc1[N+](=O)[O-])-c1ccccc1/C2=N\O
inactive: [10] 91 % of control | [11] 100 % of control | [12] 88 % of control

CCOP(=O)(NCCCOC)OCC
inactive: dose: 0.78 mg/kg/injection, schedule: Q01DX009 (ip), vehicle: acetone 96 % of control | dose: 1.56 mg/kg/injection, schedule: Q01DX009 (ip), vehicle: acetone 100 % of control | dose: 3.12 mg/kg/injection, schedule: Q01DX009 (ip), vehicle: acetone 91 % of control | dose: 3.12 mg/kg/injection, schedule: Q04DX003 (ip), vehicle: saline 93 % of control | dose: 4.6 mg/kg/injection, schedule: Q01DX009 (ip), vehicle: saline 95 % of control | dose: 7.0 mg/kg/injection, schedule: Q01DX009 (ip), vehicle: saline 98 % of control | dose: 10.5 mg/kg/injection, schedule: Q01DX009 (ip), vehicle: saline 95 % of control | dose: 12.5 mg/kg/injection, schedule: Q01DX001 (ip), vehicle: acetone 94 % of control | dose: 15.0 mg/kg/injection, schedule: Q01DX009 (ip), vehicle: acetone 94 % of control | dose: 23.0 mg/kg/injection, schedule: Q01DX009 (ip), vehicle: acetone 94 % of control

COc1ccc(C=NC2C(O)OC(CO)C(O)C2O)cc1 (centres undefined)
inactive: [13] 106 % of control | [14] 87 % of control | [15] 93 % of control

Cc1cc(C)c(N)c(C)n1
inactive: dose: 12.5 mg/kg/injection, schedule: Q04DX003 (ip), vehicle: Klucel (hydroxypropylcellulose) (HPC) 95 % of control | dose: 25.0 mg/kg/injection, schedule: Q04DX003 (ip), vehicle: Klucel (hydroxypropylcellulose) (HPC) 97 % of control | dose: 50.0 mg/kg/injection, schedule: Q04DX003 (ip), vehicle: Klucel (hydroxypropylcellulose) (HPC) 93 % of control

CCCCCCCCCCCCC(C)(OO)C(=O)OC (centres undefined)
inactive: dose: 15.0 mg/kg/injection, schedule: Q04DX002 (ip), vehicle: saline with Tween-80 100 % of control | dose: 30.0 mg/kg/injection, schedule: Q04DX002 (ip), vehicle: saline with Tween-80 91 % of control | dose: 160.0 mg/kg/injection, schedule: Q04DX002 (ip), vehicle: saline with Tween-80 95 % of control

Cc1cc(Cl)ccc1NC(=O)c1ccccc1
inactive: [16] 98 % of control | [4] 103 % of control | [17] 105 % of control | [5] 92 % of control | dose: 400.0 mg/kg/injection, schedule: Q01DX009 (ip), vehicle: Klucel (hydroxypropylcellulose) (HPC) 96 % of control | dose: 400.0 mg/kg/injection, schedule: Q04DX003 (ip), vehicle: Klucel (hydroxypropylcellulose) (HPC) 97 % of control

O=C(O)CCN1C/C(=C\c2ccc(Cl)cc2)C(=O)C1=O
inactive: [7] 101 % of control | [8] 101 % of control | [9] 101 % of control

O=C1NC2(CCCCC2)NC12CCCCC2
inactive: dose: 25.0 mg/kg/injection, schedule: Q01DX009 (ip), vehicle: saline 118 % of control | dose: 50.0 mg/kg/injection, schedule: Q01DX009 (ip), vehicle: saline 110 % of control | [6] 106 % of control
